Data set [1] can be described thus: pH of peptide solutions in DMSO/D5W, with succinate, and with Hiltonol. The class given is physicochemical.
A short description of data set [2]: Short-term room temperature stability of Pool 3 mixed with Hiltonol (RP-HPLC). It counts as physicochemical. The procedure:
A peptide pool (Pool 3) consisting of the five peptides shown in Table 6 below was prepared by dissolution in DMSO and dilution with D5W/Succinate (2 mM) to 2 mg/ml and pooling to a final peptide concentration of 400 μg per ml and a final DMSO concentration of 4%. After preparation, peptides were filtered with a 25 mm Pall PES filter (Cat#4612) and dispensed into Nunc Cryo vials (#375418) in one ml aliquots.
Three samples were prepared by mixing 0.75 ml of Pool3 with 0.25 ml Hiltonol® as planned for the dosage form preparation. The samples were then left at room temperature for 0, 4 and 6 hours and analyzed by RP-HPLC (Table 7). […] As slight increase in a second peak associated with peptide CS6919 was noted, increasing from 14% to 17% and 18% at 4 and 6 hours, respectively. […] Recovery of all peptides was above 90%, indicating no breakdown and loss of any peptides in the final dosage form after 6 hour room temperature incubation.

Data set [3] is described as follows: physchem. The note with it: pH 6.

59 substances from patent US20190060428A1, “FORMULATIONS FOR NEOPLASIA VACCINES AND METHODS OF PREPARING THEREOF” (The Broad Institue Inc., priority 2015, published 2019) can be followed below.

With H-AESAQRQGPLGGGEQSANEF-OH [CS7417], in data set [1], the “pH of peptides in DMSO/D5W” value was 3.82; the “pH of peptides in DMSO/D5W/5mM S. Succinate spike” value was determined as 6.28; the “pH of peptides in DMSO/D5W/5nnM Succinate and Hiltonol” value stood at 6.5.
Turning to “H-KPKKVAGAATPKKSIKRTPKKVKKPATAAGTKK-OH [CS6717]”, in data set [1], the “pH of peptides in DMSO/D5W” value stood at 4.65.
For “H-AHRQGEKQHLLPVFSRLALRLPWRHSVQL-OH [CS6941]”, in data set [1], the “pH of peptides in DMSO/D5W” value is given as 3.92; the “pH of peptides in DMSO/D5W/5mM S. Succinate spike” value amounted to 6.49; the “pH of peptides in DMSO/D5W/5nnM Succinate and Hiltonol” value amounted to 6.78. In data set [2] (Pool 3 + Hiltonol, 4 Hours RT), the “% Impurity” value was 0%, the “% Purity” value stood at 100%, the “Main Peak” value amounted to 6676.54 and the “Total Impurities” value was 0. The “Total Peak” value in data set [2] (Pool 3 + Hiltonol, 4 Hours RT) worked out at 6676.54. Further, in data set [2] (Pool 3 + Hiltonol, 6 Hours RT), the “% Impurity” value was determined as 0%, the “% Purity” value stood at 100%, the “Main Peak” value is reported as 7158.29 and the “Total Impurities” value worked out at 0. For the same substance, in data set [2] (Pool 3 + Hiltonol, 6 Hours RT), the “Total Peak” value was determined as 7158.29. Also, in data set [2] (T0 Pool 3 + Hiltonol, RP-HPLC), the “% Impurity” value was 0%, the “% Purity” value was 100%, the “Main Peak” value is 7140.91 and the “Total Impurities” value worked out at 0. Moreover, the “Total Peak” value in data set [2] (T0 Pool 3 + Hiltonol, RP-HPLC) was 7140.91.
Regarding “H-SKLPYPVAKSGKRALARGPAPTEKTPHSGAQLG-OH [CS6719]”, the “pH of peptides in DMSO/D5W” value in data set [1] is recorded as 3.94.
In the case of “H-SGQPAPEETVLFLGLLHGLLLILRRLRGG-OH [CS6937]”, in data set [1], the “pH of peptides in DMSO/D5W” value came to 3.87; the “pH of peptides in DMSO/D5W/5mM S. Succinate spike” value came to 6.51; the “pH of peptides in DMSO/D5W/5nnM Succinate and Hiltonol” value was found to be 6.76.
With “H-PIQVFYTKQPQNDYLHVALVSVFQIHQEAPSSQ-OH [CS6729]”, in data set [1], the “pH of peptides in DMSO/D5W” value amounted to 3.87.
As for H-IGALNPKRAAFFAEHYESWE-OH [CS7420], in data set [1], the “pH of peptides in DMSO/D5W” value stood at 3.84; the “pH of peptides in DMSO/D5W/5mM S. Succinate spike” value is reported as 6.38; the “pH of peptides in DMSO/D5W/5nnM Succinate and Hiltonol” value came out at 6.56.
Consider H-WDGPPENDMLLKEICGSLIP-OH [CS7432], for which, in data set [1], the “pH of peptides in DMSO/D5W” value is reported as 3.72; the “pH of peptides in DMSO/D5W/5mM S. Succinate spike” value was 6.22; the “pH of peptides in DMSO/D5W/5nnM Succinate and Hiltonol” value is on record as 6.45.
In the same order, the values of “H-LRVFIGNIAVNHAPVSLRPGLGLPPGAPPGTVP-OH [CS7412]” are 4.24, 6.61 and 6.96.
For H-VEQGHVRVGPDVVTHPAFLV-OH [CS7427], in data set [1], the “pH of peptides in DMSO/D5W” value is reported as 3.72; the “pH of peptides in DMSO/D5W/5mM S. Succinate spike” value was 6.34; the “pH of peptides in DMSO/D5W/5nnM Succinate and Hiltonol” value came out at 6.52.
Take H-YLLPKTAVVLRCPALRVRKP-OH [CS7418]: in data set [1], the “pH of peptides in DMSO/D5W” value is recorded as 3.98; the “pH of peptides in DMSO/D5W/5mM S. Succinate spike” value is listed as 6.76; the “pH of peptides in DMSO/D5W/5nnM Succinate and Hiltonol” value is on record as 6.96.
“H-LPVFIGNIAVNHAPVSLRPGLGLPPGAPPLVVP-OH [CS6730]”: the “pH of peptides in DMSO/D5W” value in data set [1] was 4.20.
Take “H-VQLSIQDVIRRARLSTVPTAQRVALRSGWI-OH [CS7413]”: in data set [1], the “pH of peptides in DMSO/D5W” value was determined as 3.9; the “pH of peptides in DMSO/D5W/5mM S. Succinate spike” value is given as 6.73; the “pH of peptides in DMSO/D5W/5nnM Succinate and Hiltonol” value came out at 7.02.
For the substance H-PLMQTELHQLVPEADPEEMA-OH [CS7430], in data set [1], the “pH of peptides in DMSO/D5W” value is 3.95; the “pH of peptides in DMSO/D5W/5mM S. Succinate spike” value is listed as 6.23; the “pH of peptides in DMSO/D5W/5nnM Succinate and Hiltonol” value came out at 6.37.
Turning to “H-LLTDRNTSGTTFTLLGVSDYPELQVP-OH [CS7409]”, in data set [1], the “pH of peptides in DMSO/D5W” value came out at 3.86; the “pH of peptides in DMSO/D5W/5mM S. Succinate spike” value is 6.32; the “pH of peptides in DMSO/D5W/5nnM Succinate and Hiltonol” value was determined as 6.62.
For “H-RGLHSQGLGRGRIAMAQTAGVLRSLEQEE-OH [CS6711]”, in data set [1], the “pH of peptides in DMSO/D5W” value came to 3.82.
As for “H-GTKALQLHSIAGRWPRMEPWVVESMSLGVP-OH [CS7415]”, in data set [1], the “pH of peptides in DMSO/D5W” value amounted to 3.91; the “pH of peptides in DMSO/D5W/5mM S. Succinate spike” value came out at 6.61; the “pH of peptides in DMSO/D5W/5nnM Succinate and Hiltonol” value came to 6.81.
In the same order, the values of “H-KGASLDAGWGSPRWTTTRMTSASAGRSTRA-OH [CS7414]” are 3.81, 6.71 and 6.99.
With “H-PPYPYSSPSLVLPTEPHTPKSLQQPGLPS-OH [CS6715]”, the “pH of peptides in DMSO/D5W” value in data set [1] was determined as 4.11.
H-SYDSVIRELLQKPNVRVVVL-OH [CS7425]: in data set [1], the “pH of peptides in DMSO/D5W” value came to 3.78; the “pH of peptides in DMSO/D5W/5mM S. Succinate spike” value is 6.44; the “pH of peptides in DMSO/D5W/5nnM Succinate and Hiltonol” value worked out at 6.65.
Consider “H-LLTDRNTSGTTFTLLGVSDYPELQVPIPQAGLG-OH [CS7408]”, for which, in data set [1], the “pH of peptides in DMSO/D5W” value was 3.89; the “pH of peptides in DMSO/D5W/5mM S. Succinate spike” value is 6.31; the “pH of peptides in DMSO/D5W/5nnM Succinate and Hiltonol” value is reported as 6.75.
For the substance “H-EPDQEAVQSSTYKDCNTLHLPTERFSPVR-OH [CS6710]”, the “pH of peptides in DMSO/D5W” value in data set [1] turned out to be 3.65.
Regarding “H-ALSLTPGLRIGPSGLFLVFLAESAVDKGHPNRS-OH [CS7410]”, in data set [1], the “pH of peptides in DMSO/D5W” value was found to be 3.99; the “pH of peptides in DMSO/D5W/5mM S. Succinate spike” value is recorded as 6.46; the “pH of peptides in DMSO/D5W/5nnM Succinate and Hiltonol” value is listed as 6.88.
A word on the solubility: it is how much of the substance goes into solution per volume. The low end stands for a poorly soluble substance, the high end for a readily soluble substance. In the case of H-LHTHYDYVSALHPVSTPSKEYTSA-OH, the solubility in data set [3] is above 2000 µg/mL.
Turning to H-KKNITNLSRLVVRPDTDAVY-OH [CS7431], in data set [1], the “pH of peptides in DMSO/D5W” value came to 3.8; the “pH of peptides in DMSO/D5W/5mM S. Succinate spike” value turned out to be 6.45; the “pH of peptides in DMSO/D5W/5nnM Succinate and Hiltonol” value came to 6.69.
Consider H-LARDIPPAVTGKWKLSDLRRYGAVPSG-OH, for which the solubility in data set [3] is above 2000 µg/mL.
Substance H-GLEQLESIINFEKLTEWTSS-OH yielded a solubility in data set [3] below 2000 µg/mL.
Same read-out and setting: the value for H-YLLPKTAVVLRCPALRVRKP-OH was above 2000 µg/mL.
H-DHVSIILLSATIPNALEFADWIG-OH: in data set [3], the solubility was below 2000 µg/mL.
In data set [3], H-NNQTNSPTTPNFGSSGSFNLPNSGD-OH came in with a solubility above 2000 µg/mL.
Still for that read-out and setting: the value for H-GLEQLESIINFEKL-OH was above 2000 µg/mL; that for H-SLTEESGGAVAFFPGNLSTSSSA-OH was above 2000 µg/mL; that for H-EYWKVLDGELEVAPEYPQSTARDWL-OH was below 2000 µg/mL.
In data set [3], H-KMQRRNDDKSILMHGLVSLRESSRG-OH gave a solubility above 2000 µg/mL.
H-LSPREEFLRLCKKIMMRSIQ-OH came in with a solubility in data set [3] above 2000 µg/mL.
On the same count and under the same terms, to H-PGGDSGELITDAHELGVAHPPGY-OH belongs above 2000 µg/mL; to H-EDSKYQNLLPFFVGHNMLLVSEE-OH, below 2000 µg/mL.
H-DVGVNSLQQYYLSPDLHFSLIQKENLD-OH: in data set [3], the solubility is below 2000 µg/mL.
Same read-out and setting: the value for H-DASDFLPDTQLFPHFTELLLPLDPLEGSSV-OH was above 2000 µg/mL.
Turning to “H-GTYLQGTASALSQSQERPPSVNRVPPSSPSSQE-OH [CS6725]”, the “pH of peptides in DMSO/D5W” value in data set [1] was 3.95.
Consider H-SRLQTRKNKKLALSSTPSNIAPSD-OH, for which, in data set [3], the solubility is above 2000 µg/mL.
On the same count and under the same terms, the value for H-TIKNSDKNVVLEHFG-OH was above 2000 µg/mL; that for H-YFDVVERSTEKIVDTSLIFNI-OH was below 2000 µg/mL; that for H-LPVFIGNIAVNHAPVSLRPGLGLPPGAPPGTVP-OH was above 2000 µg/mL.
The substance H-FPVVQSTEDVFPQGLPNEYAFVT-OH returned a solubility in data set [3] above 2000 µg/mL.
As for H-TKLKSKAPHWTNCILHEYKNLSTS-OH, in data set [3], the solubility was above 2000 µg/mL.
On the same count and under the same terms, the value for H-VDKNGRRRLVYLVENPGG-OH was above 2000 µg/mL.
On to “H-DSAVDKGHPNRSALSLTPGLRIGPSGLFLVFLA-OH [CS7411]”, for which, in data set [1], the “pH of peptides in DMSO/D5W” value worked out at 3.87; the “pH of peptides in DMSO/D5W/5mM S. Succinate spike” value is reported as 6.53; the “pH of peptides in DMSO/D5W/5nnM Succinate and Hiltonol” value amounted to 6.94.
On to H-FYSNSTVSETQWKVTVTPR-OH, for which the solubility in data set [3] is above 2000 µg/mL.
In data set [3], H-KGEKNGMTFSSTKDYVNNV-OH came in with a solubility above 2000 µg/mL.
The substance H-AASAAAFPSQRTSWEFLQSLVSIKQEK-OH came in with a solubility in data set [3] above 2000 µg/mL.
Same read-out and setting: the value for H-RLVLGKFGDLTNNFSSPHAR-OH was above 2000 µg/mL.
With “H-LPVFIGNIAVNHAPVSLRPGLGLPPGAPPGTVP-OH [CS7438]”, in data set [1], the “pH of peptides in DMSO/D5W” value is 4.24; the “pH of peptides in DMSO/D5W/5mM S. Succinate spike” value is listed as 6.78; the “pH of peptides in DMSO/D5W/5nnM Succinate and Hiltonol” value turned out to be 6.96.
In data set [3], H-EQGPWQSEGQTWRAAGGRVPVPCPAAGPG-OH gave a solubility above 2000 µg/mL.
With H-KKNITNLSRLVVRPDTDAVY-OH, the solubility in data set [3] is above 2000 µg/mL.
The same measure, in the same setting: to H-PAPPPAVPKEHPAPPAPPPASAPTP-OH belongs above 2000 µg/mL; to H-EIHGKCENMTITSRGTTVTPTKETVSLG-OH, above 2000 µg/mL; to H-PLMQTELHQLVPEADPEEMA-OH, above 2000 µg/mL.
In data set [3], H-FKMDRQGVTQVLSCLSYISALGMMT-OH gave a solubility below 2000 µg/mL.
